# Assay results published in patent US20060093561A1, “Method of treating microorganisms in the oral cavity” (priority 2004, published 2006).
# Columns and labels:
# [1] = system: P. gingivalis; assay: Photodynamic therapy assay, bacteria suspended in PBS; format: cell-based, Porphyromonas gingivalis 381; details: for killing of P. gingivalis: light dose 2.2 J/cm^2, 50 μg/ml TBO, 5 min incubation
# From the text: (§1) The following bacteria were used in these experiments and cultivated in an anaerobic chamber (available commercially from Coy Manufacturing Co.; AnnArbor, Mich., USA): Porphyromonas gingivalis 381; Prevotella intermedia 25611; Actinobacillus actinomycetemcomitans UT32; Fusobacterium nucleatum 1213; Bacteroides forsythus 43037. P. gingivalis and P. intermedia strains were subcultured weekly in Todd Hewitt Broth (available commercially from Fisher Scientific; Nepean, Ontario, Canada; hereinafter referred to as Fisher) supplemented with 5 μg/ml hemin (Sigma-Aldrich Co.; Oakville, Ontario, Canada; hereinafter referred to as Sigma) and 1 μg/ml menadione (Sigma). A. actinomycetemcomitans was subcultured in Tryptic Soy Broth (Fisher) containing 6 g/l yeast extract (Fisher) and 8 ml of 1.5% sodium bicarbonate, filter sterilized (Fisher). F. nucleatum was subcultured in Todd Hewitt Broth. B. forsythus was subcultured in Brain Heart Infusion Broth (95 ml) (Fisher) supplemented with 0.001 g N-acetylmuramic acid (Sigma) in 5 ml Horse Serum (Cedarlane Laboratories; Hornby, Ontario, Canada), filter sterilized. Prior to experiments, a fresh broth tube was inoculated and allowed to grow overnight at 37° C. in the anaerobic chamber.
# A 100 Watt red-filtered xenon fibre optic light source having a bandwidth of 620-640 nm (available commercially from EXFO, Inc.; Mississauga, Ontario, Canada) was used in these experiments. […] Light dose for each source was calculated by the cross product of the TBO absorption spectrum and light spectrum.
# (§2) The photosensitizer TBO (Sigma) was dissolved in Dulbecco's Phosphate Buffered Saline (PBS) (Sigma) to a concentration of 1 mg/ml under ambient light. […] The stock was diluted to appropriate concentrations with PBS as required.
# (§3) An overnight bacterial culture was removed from the anaerobic chamber and centrifuged at 2400×g for 5 minutes in an IEC21000R centrifuge (Fisher). The supernatant was discarded and the pellet washed and resuspended three times in PBS. The bacterial suspension was then adjusted to a working concentration of approximately 10^10 colony forming units (cfu)/ml by measurement of optical density at 600 nm (Pharmacia LKB Ultraspec III). The suspension was returned to the anaerobic chamber and aliquoted in pre-reduced 1.5 ml microfuge tubes (Fisher) in order to decrease oxygen exposure of the anaerobic suspension.
# Prior to light irradiation, 75 μl of calibrated bacterial suspension (7.5×10^8 cfu) was mixed with 75 μl of TBO stock solution (100 μg/ml) in a sterile tube, for a final mixture concentration of 5×10^9 cfu/ml and 50 μg/ml TBO. The mixture was then incubated at room temperature for 5 min. in the dark. TBO negative controls were incubated with an equal volume of sterile PBS instead of TBO. The mixture was then added to a sterilized perfusion chamber (Cedarlane Laboratories) mounted on a glass coverslip. The perfusion chamber was 500 μm thick, and so attenuation of the treatment light by the TBO was only 30% at 50 μg/ml. For most treatments at a concentration of 12.5 μg/ml TBO, the attenuation of treatment light was only 9%. The inoculated perfusion chamber was irradiated under the desired conditions with a light beam whose diameter covered the perfusion chamber's transparent surface. Upon completion, the mixture was removed and serially diluted in PBS and each dilution was plated on the following media: for P. gingivalis, P. intermedia, and F. nucleatum, Trypticase Soy Agar (Fisher) supplemented with 5 g/l yeast extract, 5 μg/ml hemin, 1 μg/ml menadione, 50 ml/l defibrinated sheep's blood (Oxoid, Inc.; Nepean, Ontario, Canada); for B. forsythus, Trypticase Soy Agar supplemented with 4 g/L yeast extract, 4 g/L trypticase peptone (Fisher), N-acetymuramic acid (10 mg/ml stock filter sterilized into medium to 10 mg/l); and for A. actinomycetemcomitans, Tryptic Soy Agar. […]
# [2] = Storage stability of TBO stock solution; format: physicochemical; details: 1 mg/ml in PBS, filter sterilized, dark tubes at −20° C., up to 3 months
# Method: as §2
# [3] = system: P. intermedia; assay: Photodynamic therapy assay after serum washout of bacteria; format: cell-based, Prevotella intermedia 25611; details: xenon lamp 10 J/cm^2, 100 mW/cm^2, 12.5 μg/ml TBO
# From the text: as §1, with “B. forsythus was subcultured in Brain Heart Infusion Broth (95 ml) (Fisher) supplemented with 0.001 g N-acetylmuramic acid (Sigma) in 5 ml Horse Serum (Cedarlane Laboratories; Hornby, Ontario, Canada), filter sterilized. Prior to experiments, a fresh broth tube was inoculated and allowed to grow overnight at 37° C. in the anaerobic chamber.” left out
# (§4) Prior to light irradiation, 75 μl of calibrated bacterial suspension (7.5×10^8 cfu) was mixed with 75 μl of TBO stock solution (100 μg/ml) in a sterile tube, for a final mixture concentration of 5×10^9 cfu/ml and 50 μg/ml TBO. […] Colony counts determined the number of bacterial survivors and they were expressed as cfu/ml. […]
# [4] = system: F. nucleatum; assay: as above; format: cell-based, Fusobacterium nucleatum 1213; details: xenon lamp 10 J/cm^2, 100 mW/cm^2, 12.5 μg/ml TBO
# From the text: as §1, with “B. forsythus was subcultured in Brain Heart Infusion Broth (95 ml) (Fisher) supplemented with 0.001 g N-acetylmuramic acid (Sigma) in 5 ml Horse Serum (Cedarlane Laboratories; Hornby, Ontario, Canada), filter sterilized. Prior to experiments, a fresh broth tube was inoculated and allowed to grow overnight at 37° C. in the anaerobic chamber.” left out
# as §4
# [5] = system: B. forsythus; assay: as above; format: cell-based, Bacteroides forsythus 43037; details: xenon lamp 10 J/cm^2, 100 mW/cm^2, 12.5 μg/ml TBO
# From the text: as §1, with “B. forsythus was subcultured in Brain Heart Infusion Broth (95 ml) (Fisher) supplemented with 0.001 g N-acetylmuramic acid (Sigma) in 5 ml Horse Serum (Cedarlane Laboratories; Hornby, Ontario, Canada), filter sterilized. Prior to experiments, a fresh broth tube was inoculated and allowed to grow overnight at 37° C. in the anaerobic chamber.” left out
# as §4
# [6] = system: P. gingivalis; assay: Photodynamic therapy assay, serum and blood bacteria suspensions; format: cell-based, Porphyromonas gingivalis 381
# Method: as §3
# (§5) Prior to light irradiation, 75 μl of calibrated bacterial suspension (7.5×10^8 cfu) was mixed with 75 μl of TBO stock solution (100 μg/ml) in a sterile tube, for a final mixture concentration of 5×10^9 cfu/ml and 50 μg/ml TBO. The mixture was then incubated at room temperature for 5 min. in the dark. TBO negative controls were incubated with an equal volume of sterile PBS instead of TBO. The mixture was then added to a sterilized perfusion chamber (Cedarlane Laboratories) mounted on a glass coverslip. The perfusion chamber was 500 μm thick, and so attenuation of the treatment light by the TBO was only 30% at 50 μg/ml. For most treatments at a concentration of 12.5 μg/ml TBO, the attenuation of treatment light was only 9%. The inoculated perfusion chamber was irradiated under the desired conditions with a light beam whose diameter covered the perfusion chamber's transparent surface. […] Colony counts determined the number of bacterial survivors and they were expressed as cfu/ml. […]
# [7] = system: A. actinomycetemcomitans; assay: Photodynamic therapy assay after serum washout of bacteria; format: cell-based, Actinobacillus actinomycetemcomitans UT32; details: xenon lamp 10 J/cm^2, 100 mW/cm^2, 12.5 μg/ml TBO
# From the text: as §1, with “B. forsythus was subcultured in Brain Heart Infusion Broth (95 ml) (Fisher) supplemented with 0.001 g N-acetylmuramic acid (Sigma) in 5 ml Horse Serum (Cedarlane Laboratories; Hornby, Ontario, Canada), filter sterilized. Prior to experiments, a fresh broth tube was inoculated and allowed to grow overnight at 37° C. in the anaerobic chamber.” left out
# as §4
# [8] = system: P. gingivalis; assay: as above; format: cell-based, Porphyromonas gingivalis 381
# Method: as §3
# as §5, with “μg/ml.” for “μg/ml. For most treatments at a concentration of 12.5 μg/ml TBO, the attenuation of treatment light was only 9%. The inoculated perfusion chamber was irradiated under the desired conditions with a light beam whose diameter covered the perfusion chamber's transparent surface.”
# [9] = xenon lamp 6.3 J/cm^2, 100 mW/cm^2, 12.5 μg/ml TBO
structure (smiles),measurement,setting,value
"Cc1cc2nc3ccc(N(C)C)cc3[s+]c2cc1N [TBO, toluidine blue O]","increase in bacterial killing, xenon lamp versus He—Ne laser","[1]; 2.2 J/cm^2, 50 μg/ml TBO",~10 fold
same,reduction in viable bacteria,"[1]; He—Ne laser, 2.2 J/cm^2, 50 μg/ml TBO",approximately 270 ×
same,killing of P. gingivalis,[1]; He—Ne laser,2.43±0.39 logs
same,killing of P. gingivalis,[1]; red-filtered xenon lamp,3.34±0.24 logs
same,P. gingivalis kill in the absence of serum,[1]; [9],6.02±0.76 logs
same,kill of P. gingivalis at each TBO concentration tested,"[1]; xenon lamp 6.3 J/cm^2 and 100 mW/cm^2, each drug concentration incl. 3.125, 6.25 and 12.5 μg/ml",5 logs
same,kill of P. gingivalis,"[1]; xenon lamp 10 mW/cm^2, total light dose 2.2 J/cm^2, 50 μg/ml TBO",2.12±0.36 logs
same,kill of P. gingivalis,"[1]; xenon lamp 25 mW/cm^2, total light dose 2.2 J/cm^2, 50 μg/ml TBO",3.34±0.41 logs
same,bacterial kill of P. gingivalis,"[1]; xenon lamp 100 mW/cm^2, light dose 6.3 J/cm^2, 50 μg/ml TBO",5 logs
same,kill of P. gingivalis,"[1]; xenon lamp 100 mW/cm^2, total light dose 2.2 J/cm^2, 50 μg/ml TBO",3.41±0.58 logs
same,storage stability of stock solution,[2],without a loss in potency
same,P. intermedia kill,[3],5.33±0.62 logs
same,F. nucleatum kill,[4],4.7±0.72 logs
same,B. forsythus killing,[5],3.92±0.68 logs
same,P. gingivalis killing with serum,"[6]; FBS 50% (v/v), xenon lamp 6.3 J/cm^2, 100 mW/cm^2, 12.5 μg/ml TBO",3.05±1.02 logs
same,maximum blood resuspended P. gingivalis kill,"[6]; defibrinated sheep's blood, xenon lamp 20 J/cm^2, 100 mW/cm^2, 12.5 μg/ml TBO",2.85±0.33 logs
same,kill of blood suspended P. gingivalis compared to TBO absent controls at higher light doses,"[6]; defibrinated sheep's blood, xenon lamp 100 mW/cm^2, 12.5 μg/ml TBO, light doses above 10 J/cm^2",~3 log
same,A. actinomycetemcomitans kill,[7],5.51±1.34 logs
same,P. gingivalis killing after serum washout,[8]; [9],4.71±1.07 logs
same,P. gingivalis kill after serum washout,"[8]; xenon lamp 10 J/cm^2, 100 mW/cm^2, 12.5 μg/ml TBO",5.48±0.68 logs
